Experimental data: PubChem BioAssay (NCI)
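Cultured in 96-well plates, cells were exposed to test compound for 48 hours across five concentrations. Here, GI50 denotes the concentration required for 50% inhibition of growth. TGI marks complete inhibition of growth.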

Experiments:
Assay in all cases: NCI anticancer screen, dose series, 48 h; in the data active = GI50 below about 0.43 µM; inactive = the rest
NCI-H522 lung = tested on: NCI-H522 lung
HCC-2998 colon = tested on: HCC-2998 colon
HT29 colon = tested on: HT29 colon
ACHN renal = tested on: ACHN renal
SF-539 CNS = tested on: SF-539 CNS
HOP-62 NSCLC = tested on: HOP-62 NSCLC
MDA-MB-435 = tested on: MDA-MB-435
SK-MEL-28 melanoma = tested on: SK-MEL-28 melanoma
SK-MEL-5 melanoma = tested on: SK-MEL-5 melanoma
SK-OV-3 ovarian = tested on: SK-OV-3 ovarian
OVCAR-3 ovarian = tested on: OVCAR-3 ovarian
UACC-62 melanoma = tested on: UACC-62 melanoma
HCT-116 colon = tested on: HCT-116 colon
OVCAR-5 ovarian = tested on: OVCAR-5 ovarian
SK-MEL-2 melanoma = tested on: SK-MEL-2 melanoma
MOLT-4 leukemia = tested on: MOLT-4 leukemia
SNB-75 CNS = tested on: SNB-75 CNS
SN12C renal = tested on: SN12C renal
SF-295 CNS = tested on: SF-295 CNS
RXF 393 renal = tested on: RXF 393 renal
OVCAR-4 ovarian = tested on: OVCAR-4 ovarian
MCF7 breast = tested on: MCF7 breast
T-47D breast = tested on: T-47D breast
EKVX NSCLC = tested on: EKVX NSCLC
SW-620 colon = tested on: SW-620 colon
BT-549 breast = tested on: BT-549 breast
NCI-H460 lung = tested on: NCI-H460 lung
DU-145 prostate = tested on: DU-145 prostate
CAKI-1 renal = tested on: CAKI-1 renal
MDA-N = tested on: MDA-N
UO-31 renal = tested on: UO-31 renal
M14 melanoma = tested on: M14 melanoma
A549 NSCLC = tested on: A549 NSCLC
OVCAR-8 ovarian = tested on: OVCAR-8 ovarian
UACC-257 melanoma = tested on: UACC-257 melanoma
HCT-15 colon = tested on: HCT-15 colon
PC-3 prostate = tested on: PC-3 prostate
KM12 colon = tested on: KM12 colon
SF-268 CNS = tested on: SF-268 CNS
786-0 renal = tested on: 786-0 renal
HOP-92 NSCLC = tested on: HOP-92 NSCLC
TK-10 renal = tested on: TK-10 renal
SNB-19 CNS = tested on: SNB-19 CNS
U251 CNS = tested on: U251 CNS
NCI/ADR-RES ovarian = tested on: NCI/ADR-RES ovarian
COLO 205 colon = tested on: COLO 205 colon
MDA-MB-231 breast = tested on: MDA-MB-231 breast
SR leukemia = tested on: SR leukemia
NCI-H23 lung = tested on: NCI-H23 lung
NCI-H226 lung = tested on: NCI-H226 lung
A498 renal = tested on: A498 renal
RPMI-8226 leukemia = tested on: RPMI-8226 leukemia
IGROV1 ovarian = tested on: IGROV1 ovarian
HS 578T breast = tested on: HS 578T breast
K-562 leukemia = tested on: K-562 leukemia
LOX IMVI melanoma = tested on: LOX IMVI melanoma
MALME-3M melanoma = tested on: MALME-3M melanoma
CCRF-CEM leukemia = tested on: CCRF-CEM leukemia
HL-60(TB) leukemia = tested on: HL-60(TB) leukemia

COC(=O)[C@@H]1N2C(=S)N(c3ccccc3)C(=O)[C@H]2SC1(C)C
> 100 µM: TGI (NCI-H522 lung) | TGI (HCC-2998 colon) | TGI (HT29 colon) | TGI (ACHN renal) | TGI (SF-539 CNS) | TGI (HOP-62 NSCLC) | TGI (MDA-MB-435) | TGI (SK-MEL-28 melanoma) | TGI (SK-MEL-5 melanoma) | TGI (SK-OV-3 ovarian) | TGI (OVCAR-3 ovarian) | TGI (UACC-62 melanoma) | TGI (HCT-116 colon) | TGI (OVCAR-5 ovarian) | TGI (SK-MEL-2 melanoma) | TGI (MOLT-4 leukemia) | TGI (SNB-75 CNS) | TGI (SN12C renal) | TGI (SF-295 CNS) | TGI (RXF 393 renal) | TGI (OVCAR-4 ovarian) | TGI (MCF7 breast) | TGI (T-47D breast) | TGI (EKVX NSCLC) | TGI (SW-620 colon) | TGI (BT-549 breast) | TGI (NCI-H460 lung) | TGI (DU-145 prostate) | TGI (CAKI-1 renal) | TGI (MDA-N) | TGI (UO-31 renal) | TGI (M14 melanoma) | TGI (A549 NSCLC) | TGI (OVCAR-8 ovarian) | TGI (UACC-257 melanoma) | TGI (HCT-15 colon) | TGI (PC-3 prostate) | TGI (KM12 colon) | TGI (SF-268 CNS) | TGI (786-0 renal) | TGI (TK-10 renal) | TGI (SNB-19 CNS) | TGI (U251 CNS) | TGI (NCI/ADR-RES ovarian) | TGI (COLO 205 colon) | TGI (MDA-MB-231 breast) | TGI (SR leukemia) | TGI (NCI-H23 lung) | TGI (NCI-H226 lung) | TGI (A498 renal) | TGI (RPMI-8226 leukemia) | TGI (IGROV1 ovarian)
69.2 µM: TGI (HOP-92 NSCLC)

CN1CCN(Cc2ccc(NC(=O)c3cncc(C#Cc4cnc(N)c5ccc(F)cc45)c3)cc2C(F)(F)F)CC1
26.2 µM: TGI (RPMI-8226 leukemia)
6.53 µM: TGI (NCI-H522 lung)
4.4 µM: TGI (M14 melanoma)
16.4 µM: TGI (CCRF-CEM leukemia)
33.3 µM: TGI (SR leukemia)
8.48 µM: TGI (UACC-62 melanoma)
4.08 µM: TGI (IGROV1 ovarian)
4.62 µM: TGI (HCT-15 colon)
3.92 µM: TGI (A498 renal)
8.92 µM: TGI (SF-268 CNS)
5.43 µM: TGI (MCF7 breast)
4.77 µM: TGI (COLO 205 colon)
4.27 µM: TGI (LOX IMVI melanoma)
3.66 µM: TGI (MDA-MB-231 breast)
7.86 µM: TGI (NCI-H23 lung)
0.683 µM: TGI (K-562 leukemia)
6.19 µM: TGI (MOLT-4 leukemia)
4.51 µM: TGI (UO-31 renal)
7.11 µM: TGI (SK-MEL-28 melanoma)
4.42 µM: TGI (HL-60(TB) leukemia)
5.58 µM: TGI (HOP-92 NSCLC)
inactive: GI50 (NCI-H522 lung) 1.86 µM | GI50 (HCC-2998 colon) 1.7 µM | GI50 (HT29 colon) 0.956 µM | GI50 (ACHN renal) 1.02 µM | GI50 (SF-539 CNS) 2.03 µM | GI50 (HS 578T breast) 1.17 µM | GI50 (HOP-62 NSCLC) 2.89 µM | GI50 (MDA-MB-435) 1.24 µM | GI50 (SK-MEL-28 melanoma) 2.52 µM | GI50 (SK-MEL-5 melanoma) 2.26 µM | GI50 (SK-OV-3 ovarian) 1.03 µM | GI50 (OVCAR-3 ovarian) 2.35 µM | GI50 (UACC-62 melanoma) 4 µM | GI50 (HCT-116 colon) 1 µM | GI50 (OVCAR-5 ovarian) 3.52 µM | GI50 (SK-MEL-2 melanoma) 0.808 µM | GI50 (MOLT-4 leukemia) 0.974 µM | GI50 (SNB-75 CNS) 1.3 µM | GI50 (SN12C renal) 1.2 µM | GI50 (LOX IMVI melanoma) 1.01 µM | GI50 (MALME-3M melanoma) 1.08 µM | GI50 (SF-295 CNS) 2.9 µM | GI50 (RXF 393 renal) 0.826 µM | GI50 (OVCAR-4 ovarian) 0.667 µM | GI50 (MCF7 breast) 1.27 µM | GI50 (T-47D breast) 4.53 µM | GI50 (EKVX NSCLC) 3.84 µM | GI50 (SW-620 colon) 1.3 µM | GI50 (BT-549 breast) 4.38 µM | GI50 (NCI-H460 lung) 1.08 µM | GI50 (DU-145 prostate) 1.25 µM | GI50 (CAKI-1 renal) 1.1 µM | GI50 (UO-31 renal) 1.15 µM | GI50 (M14 melanoma) 0.974 µM | GI50 (CCRF-CEM leukemia) 0.865 µM | GI50 (A549 NSCLC) 2.04 µM | GI50 (OVCAR-8 ovarian) 2.31 µM | GI50 (UACC-257 melanoma) 4.08 µM | GI50 (HCT-15 colon) 1.03 µM | GI50 (PC-3 prostate) 1.39 µM | GI50 (SF-268 CNS) 1.79 µM | GI50 (786-0 renal) 3.95 µM | GI50 (HOP-92 NSCLC) 0.989 µM | GI50 (TK-10 renal) 2.44 µM | GI50 (SNB-19 CNS) 4.39 µM | GI50 (U251 CNS) 2.14 µM | GI50 (NCI/ADR-RES ovarian) 3.22 µM | GI50 (COLO 205 colon) 1.23 µM | GI50 (MDA-MB-231 breast) 0.936 µM | GI50 (SR leukemia) 1.25 µM | GI50 (HL-60(TB) leukemia) 1.05 µM | GI50 (NCI-H23 lung) 2.4 µM | GI50 (NCI-H226 lung) 1.05 µM | GI50 (A498 renal) 0.902 µM | GI50 (RPMI-8226 leukemia) 1.27 µM | GI50 (IGROV1 ovarian) 0.677 µM
4.99 µM: TGI (MDA-MB-435)
7.09 µM: TGI (OVCAR-8 ovarian)
3.93 µM: TGI (MALME-3M melanoma)
6.16 µM: TGI (NCI-H226 lung)
8.95 µM: TGI (NCI-H460 lung)
6.13 µM: TGI (SF-539 CNS)
7.21 µM: TGI (OVCAR-3 ovarian)
3.81 µM: TGI (SK-OV-3 ovarian)
4.23 µM: TGI (OVCAR-4 ovarian)
2.39 µM: TGI (SK-MEL-2 melanoma)
5.71 µM: TGI (SNB-75 CNS)
4.83 µM: TGI (SW-620 colon)
12.2 µM: TGI (HS 578T breast)
6.46 µM: TGI (A549 NSCLC)
8.86 µM: TGI (BT-549 breast)
8.63 µM: TGI (UACC-257 melanoma)
5.01 µM: TGI (DU-145 prostate)
11.4 µM: TGI (T-47D breast)
5.04 µM: TGI (HCT-116 colon)
5.98 µM: TGI (HCC-2998 colon)
9.99 µM: TGI (786-0 renal)
4.57 µM: TGI (CAKI-1 renal)
2.73 µM: TGI (RXF 393 renal)
7.35 µM: TGI (SF-295 CNS)
6.68 µM: TGI (SK-MEL-5 melanoma) | TGI (PC-3 prostate) | TGI (TK-10 renal)
7.51 µM: TGI (OVCAR-5 ovarian)
active: GI50 (K-562 leukemia) 0.0128 µM | GI50 (KM12 colon) 0.0282 µM
4.14 µM: TGI (HT29 colon)
7.89 µM: TGI (EKVX NSCLC)
4.36 µM: TGI (ACHN renal)
10.4 µM: TGI (NCI/ADR-RES ovarian)
7.24 µM: TGI (HOP-62 NSCLC)
8.96 µM: TGI (SNB-19 CNS)
4.89 µM: TGI (SN12C renal)
6.56 µM: TGI (U251 CNS)
4.63 µM: TGI (KM12 colon)

CC1(C)C2CC(c3ccncc3)ON2C(C)(C)N1O (stereo not given)
> 100 µM: TGI (HCC-2998 colon) | TGI (HT29 colon) | TGI (ACHN renal) | TGI (SF-539 CNS) | TGI (HS 578T breast) | TGI (HOP-62 NSCLC) | TGI (MDA-MB-435) | TGI (SK-MEL-28 melanoma) | TGI (SK-MEL-5 melanoma) | TGI (SK-OV-3 ovarian) | TGI (OVCAR-3 ovarian) | TGI (UACC-62 melanoma) | TGI (K-562 leukemia) | TGI (HCT-116 colon) | TGI (OVCAR-5 ovarian) | TGI (SK-MEL-2 melanoma) | TGI (MOLT-4 leukemia) | TGI (SNB-75 CNS) | TGI (SN12C renal) | TGI (LOX IMVI melanoma) | TGI (MALME-3M melanoma) | TGI (SF-295 CNS) | TGI (RXF 393 renal) | TGI (OVCAR-4 ovarian) | TGI (MCF7 breast) | TGI (T-47D breast) | TGI (EKVX NSCLC) | TGI (SW-620 colon) | TGI (NCI-H460 lung) | TGI (DU-145 prostate) | TGI (CAKI-1 renal) | TGI (MDA-N) | TGI (UO-31 renal) | TGI (M14 melanoma) | TGI (CCRF-CEM leukemia) | TGI (A549 NSCLC) | TGI (OVCAR-8 ovarian) | TGI (UACC-257 melanoma) | TGI (HCT-15 colon) | TGI (PC-3 prostate) | TGI (KM12 colon) | TGI (SF-268 CNS) | TGI (786-0 renal) | TGI (HOP-92 NSCLC) | TGI (TK-10 renal) | TGI (SNB-19 CNS) | TGI (U251 CNS) | TGI (NCI/ADR-RES ovarian) | TGI (COLO 205 colon) | TGI (MDA-MB-231 breast) | TGI (SR leukemia) | TGI (HL-60(TB) leukemia) | TGI (NCI-H23 lung) | TGI (NCI-H226 lung) | TGI (RPMI-8226 leukemia) | TGI (IGROV1 ovarian)
